Results: ChEMBL document CHEMBL1201862, “PubChem BioAssay data set” (2004)
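Exposure lasted 48 hours, with cells grown in 96-well plates and compounds tested at five concentrations. Here, GI50 denotes the concentration required for 50% inhibition of growth.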 Activity calls are given as the source filed them. No stated cut-off is given here; in the data, active = GI50 up to about 1.1 µM and inactive = higher.

How the values were obtained:
Assay in all cases: inhibition of tumour cell growth, NCI panel, 48 h
OVCAR-5 = system: OVCAR-5
SW-620 = system: SW-620
UACC-62 = system: UACC-62
SK-MEL-2 = system: SK-MEL-2
MDA-MB-435 = system: MDA-MB-435
HCT-15 = system: HCT-15
HOP-62 = system: HOP-62
786-0 = system: 786-0
CAKI-1 = system: CAKI-1
M14 = system: M14
NCI-H460 = system: NCI-H460
EKVX = system: EKVX
PC-3 = system: PC-3
DU-145 = system: DU-145
HCT-116 = system: HCT-116
SF-268 = system: SF-268
SK-OV-3 = system: SK-OV-3
NCI-H23 = system: NCI-H23
SN12C = system: SN12C
Malme-3M = system: Malme-3M
SF-295 = system: SF-295
UACC-257 = system: UACC-257
NCI/ADR-RES = system: NCI/ADR-RES
SNB-19 = system: SNB-19
KM12 = system: KM12
HCC 2998 = system: HCC 2998
OVCAR-4 = system: OVCAR-4
SK-MEL-28 = system: SK-MEL-28
SK-MEL-5 = system: SK-MEL-5
TK-10 = system: TK-10
CCRF-CEM = system: CCRF-CEM
SR = system: SR
SF-539 = system: SF-539
OVCAR-3 = system: OVCAR-3
MOLT-4 = system: MOLT-4
NCI-H226 = system: NCI-H226
COLO 205 = system: COLO 205
HL-60 = system: HL-60
A549 = system: A549
T47D = system: T47D
IGROV-1 = system: IGROV-1
LOX IMVI = system: LOX IMVI
UO-31 = system: UO-31
MCF7 = system: MCF7
RXF 393 = system: RXF 393
Hs-578T = system: Hs-578T
U-251 = system: U-251
HT-29 = system: HT-29
ACHN = system: ACHN
K562 = system: K562
A498 = system: A498
HOP-92 = system: HOP-92
RPMI-8226 = system: RPMI-8226
NCI-H522 = system: NCI-H522

## C=C[C@@]1(C)CC2CC[C@]3(C)C(C)=CC(=O)CC3[C@]2(C)CC1O (some centres undefined)
OVCAR-5
  GI50: > 100 µM (inactive)
SW-620
  GI50: > 100 µM (inactive)
UACC-62
  GI50: > 100 µM (inactive)
SK-MEL-2
  GI50: > 100 µM (inactive)
MDA-MB-435
  GI50: > 100 µM (inactive)
HCT-15
  GI50: > 100 µM
HOP-62
  GI50: > 100 µM (inactive)
786-0
  GI50: > 100 µM (inactive)
CAKI-1
  GI50: > 100 µM (inactive)
M14
  GI50: > 100 µM (inactive)
NCI-H460
  GI50: > 100 µM (inactive)
EKVX
  GI50: > 100 µM (inactive)
PC-3
  GI50: > 100 µM (inactive)
DU-145
  GI50: > 100 µM (inactive)
HCT-116
  GI50: 91.4 µM (inactive)
SF-268
  GI50: > 100 µM (inactive)
SK-OV-3
  GI50: > 100 µM (inactive)
NCI-H23
  GI50: > 100 µM (inactive)
SN12C
  GI50: > 100 µM (inactive)
Malme-3M
  GI50: > 100 µM (inactive)
SF-295
  GI50: > 100 µM (inactive)
UACC-257
  GI50: > 100 µM (inactive)
NCI/ADR-RES
  GI50: > 100 µM (inactive)
SNB-19
  GI50: > 100 µM (inactive)
KM12
  GI50: 85.3 µM (inactive)
HCC 2998
  GI50: > 100 µM (inactive)
OVCAR-4
  GI50: > 100 µM (inactive)
SK-MEL-28
  GI50: > 100 µM (inactive)
SK-MEL-5
  GI50: > 100 µM (inactive)
TK-10
  GI50: > 100 µM (inactive)
CCRF-CEM
  GI50: 38.3 µM (inactive)
SR
  GI50: > 100 µM (inactive)
SF-539
  GI50: > 100 µM (inactive)
OVCAR-3
  GI50: 67.3 µM (inactive)
MOLT-4
  GI50: 83.2 µM (inactive)
NCI-H226
  GI50: > 100 µM (inactive)
COLO 205
  GI50: 94.4 µM (inactive)
HL-60
  GI50: 32.7 µM (inactive)
A549
  GI50: > 100 µM (inactive)
T47D
  GI50: > 100 µM (inactive)
IGROV-1
  GI50: > 100 µM (inactive)
LOX IMVI
  GI50: > 100 µM (inactive)
UO-31
  GI50: > 100 µM (inactive)
MCF7
  GI50: > 100 µM (inactive)
RXF 393
  GI50: > 100 µM (inactive)
Hs-578T
  GI50: > 100 µM (inactive)
U-251
  GI50: > 100 µM (inactive)
HT-29
  GI50: > 100 µM (inactive)
ACHN
  GI50: > 100 µM (inactive)
K562
  GI50: 38 µM (inactive)
A498
  GI50: > 100 µM (inactive)
HOP-92
  GI50: > 100 µM (inactive)
RPMI-8226
  GI50: > 100 µM (inactive)
NCI-H522
  GI50: 32.7 µM (inactive)
